Results reported in patent publication US20230219912A1, “HALOGENATED BENZOTHIADIAZINES FOR THE TREATMENT OF CANCER” (BOARD OF REGENTS OF THE UNIVERSITY OF NEBRASKA, priority 2020, published 2023).
“Also recorded” adds a separate entry of the source. Read-outs that look alike come from different tables or passages of the source.

How the values were obtained:
[1] = target: T1, Mitochondrial respiratory complex II (Rattus norvegicus, UniProt P21913+Q641Z9+Q6PCT8+Q920L2); assay: Mitochondrial respiratory complex II inhibition assay; assay type: biochemical; details: for inhibition at 100 µM: read-out: inhibition of CII; for IC50: isolated rat heart mitochondria, mean ±SD of n = 4, read-out: CII IC50
T1 construct: measured spectrophotometrically using isolated rat heart mitochondria; from tissue; host or cells: rat heart mitochondria / sub-mitochondrial particles
Experimental: The assay was performed as follows. Mitochondria were isolated either from fresh rat hearts or by differential centrifugation in sucrose-based buffer as previously described.^24 Complex II enzymatic activity was determined spectrophotometrically as the rate of succinate-driven, co-enzyme Q2-linked reduction of dichlorophenolindophenol (DCPIP).^49 Mitochondria or sub-mitochondrial particles were incubated in phosphate buffer (pH 7.4) containing 40 μM DCPIP, 1 mM KCN, 10 μM rotenone, and 50 μM co-enzyme Q2. The rate of reduction of DCPIP to DCPIPH2 was followed at […] (ε=21,000 M-1). Varying amounts of succinate and inhibitors were used to determine an IC50 value. At the end of each run thenoyltrifluoroacetone (1 mM) was added and the residual TTFA-insensitive rate subtracted.

[2] = system: 22Rv1 prostate cancer cells; assay: MTS cytotoxicity assay in 22Rv1 prostate cancer cells; details: for cytotoxicity at 100 µM: Homo sapiens, 22Rv1, 48 h, read-out: reduction of 22Rv1 cell viability
Experimental: The assay was performed as follows. To determine the cell growth inhibition ability of the synthesized compounds the (3-(4,5-dimethylthiazol-2-yl)-5-(3-carboxymethoxyphenyl)-2-(4-sulfophenyl)-2H-tetrazolium) (MTS) assay used according to the manufacturer's recommended protocol. Stock solutions of the synthesized compounds were prepared in DMSO. Cells were seeded at a density of 1×10^5 cells in 96-well plates. After 24 hours, cells were treated at the indicated concentrations of test compounds, limiting the final DMSO concentration to less than 1%. After incubation at 37° C. in an environment of 5% CO2 for 48-72 hours, 10 μL of MTS reagent (CellTiter 96© AQueous One Solution Reagent) was added to each well and incubated at the above mentioned conditions for 2-4 hr. Absorbance was recorded at 490 nm on a BioTek Synergy Mx multimode plate reader and the viability of cells were plotted as percentage of controls.

[3] = system: MDA-MB-468 triple negative breast cancer cells; assay: MTS cytotoxicity assay in MDA-MB-468 triple negative breast cancer cells; assay type: cell-based; details: for effect on MDA-MB 468 TNBC cell viability: 10, 50 and 100 μM for 24, 48 and 72 hours, MTS; for IC50: Homo sapiens, MDA-MB-468, 72 hours, mean ± SD n = 3
Experimental: The assay was performed as follows.
Derivatives were dosed at 10, 50 and 100 μM for 24, 48 and 72 hours and cell viability measured by MTS assay (FIG. 5).

[4] = system: VEGF-induced proliferation of HUVEC cells; assay: VEGF-induced HUVEC proliferation, MTT assay; assay type: cell-based, human; details: for inhibition of VEGF-induced HUVEC proliferation (in words): 20 μM; for inhibition at 20 µM: Homo sapiens, read-out: % Inhibition of Proliferation
Experimental: The assay was performed as follows. Vascular endothelial growth factor (VEGF, Cat #SRP3182) was purchased from Sigma. […] Stock solutions of all compounds were prepared in DMSO and were serially diluted for cell culture treatment maintaining the final DMSO concentration at less than 1%. Cell proliferation of HUVECs was evaluated through the MTT (3-[4, 5-dimethylthiazol-2-yl]-2, 5-dimethyltetrazolium bromide) colorimetric assay, as previously described.^28 The HUVECs were seeded at a density of 10,000 cells/well in 24 well plates in serum-containing medium and cultured overnight. Cells were starved with 300 μL of assay media (0.1% BSA+0.1% FBS in basal medium) for 24 h. Then, cells were treated with 500 μL of assay medium (control group), VEGF (10 ng/mL, positive control group) or VEGF along with compounds (20 μM). After 48 h of culture, 50 μL of MTT stock (5 mg/mL in PBS) was added to each well and incubated for 2 h at 37° C. to allow the formation of dark blue formazan crystals in the metabolically active cells. The medium was removed, the cells were washed with PBS (pH 7.4), and 100 μL of acidified isopropanol (0.33 mL HCl in 100 mL isopropanol) was added to each well and incubated for 5 min with thorough agitation to solubilize the formazan crystals. An equal volume of the solution was transferred to a 96-well plate and the absorbance was immediately measured using a microplate reader at a wavelength of 570 nm.

[5] = 100 μM, relative to DMSO control
[6] = HUVEC, 48 h, 20 μM compound, VEGF 10 ng/mL, HUVEC, 48 h, relative to VEGF treated cells, mean ± SEM n = 3

T1 sequence (Q920L2 35-656): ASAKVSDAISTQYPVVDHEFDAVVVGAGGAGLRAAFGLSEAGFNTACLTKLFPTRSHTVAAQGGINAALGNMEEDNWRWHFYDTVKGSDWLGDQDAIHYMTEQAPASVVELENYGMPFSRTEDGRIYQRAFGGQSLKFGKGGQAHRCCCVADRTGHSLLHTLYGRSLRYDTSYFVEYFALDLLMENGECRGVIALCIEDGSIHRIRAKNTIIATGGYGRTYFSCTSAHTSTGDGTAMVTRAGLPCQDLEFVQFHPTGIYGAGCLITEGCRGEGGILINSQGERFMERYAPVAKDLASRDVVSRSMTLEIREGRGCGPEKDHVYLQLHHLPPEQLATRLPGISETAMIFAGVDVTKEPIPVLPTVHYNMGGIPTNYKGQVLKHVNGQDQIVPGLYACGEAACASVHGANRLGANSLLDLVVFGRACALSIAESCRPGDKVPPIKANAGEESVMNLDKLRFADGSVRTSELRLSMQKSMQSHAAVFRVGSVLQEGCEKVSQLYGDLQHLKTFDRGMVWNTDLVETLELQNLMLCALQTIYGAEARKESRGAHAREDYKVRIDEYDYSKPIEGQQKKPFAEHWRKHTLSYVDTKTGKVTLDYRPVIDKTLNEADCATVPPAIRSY
T1 sequence (P21913 31-282): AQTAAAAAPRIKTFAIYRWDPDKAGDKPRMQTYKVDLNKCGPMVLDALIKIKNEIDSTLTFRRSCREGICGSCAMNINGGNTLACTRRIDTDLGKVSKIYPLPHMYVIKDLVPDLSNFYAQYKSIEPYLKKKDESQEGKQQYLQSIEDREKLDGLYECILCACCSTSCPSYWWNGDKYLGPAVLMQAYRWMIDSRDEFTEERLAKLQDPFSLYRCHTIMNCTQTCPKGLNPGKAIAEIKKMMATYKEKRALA
T1 sequence (Q641Z9 1-169): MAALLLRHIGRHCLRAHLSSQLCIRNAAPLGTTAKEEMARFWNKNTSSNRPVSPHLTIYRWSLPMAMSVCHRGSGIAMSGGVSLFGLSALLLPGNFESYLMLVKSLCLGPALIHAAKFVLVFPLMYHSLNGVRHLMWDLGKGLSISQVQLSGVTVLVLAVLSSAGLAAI
T1 sequence (Q6PCT8 57-159): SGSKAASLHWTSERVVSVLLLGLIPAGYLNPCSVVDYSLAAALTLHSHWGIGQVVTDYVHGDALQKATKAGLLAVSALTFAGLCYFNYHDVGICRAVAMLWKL

| SMILES | inhibition at 100 µM [1, 5] | cytotoxicity at 100 µM [2] | effect on MDA-MB 468 TNBC cell viability [3] | inhibition of VEGF-induced HUVEC proliferation (in words) ([4]; VEGF 10 ng/mL) | inhibition at 20 µM [4, 6] | further results |
| --- | --- | --- | --- | --- | --- | --- |
| COc1ccc(CNC2=NS(=O)(=O)c3cc(Br)ccc3N2)cc1 [Compound 20c, 7-bromo-3-((4-methoxybenzyl)amino)-4H-benzo[e][1,2,4]thiadiazine 1,1-dioxide] | 64% | 41% | potent activity | – | – | IC50 [1]: 79.7 µM |
| O=S1(=O)N=C(NCc2ccc(OC(F)(F)F)cc2)Nc2ccccc21 [Compound 30d, 3-((4-(trifluoromethoxy)benzyl)amino)-4H-benzo[e][1,2,4]thiadiazine 1,1-dioxide] | – | ~30% | – | – | – | – |
| O=S1(=O)N=C(NCCc2ccc(Cl)cc2)Nc2ccc(F)cc21 [Compound 37a, 3-((4-chlorophenethyl)amino)-7-fluoro-4H-benzo[e][1,2,4]thiadiazine 1,1-dioxide] | 34% | – | – | – | – | reduction of 22Rv1 cell viability ([2]; 100 μM, 48 hrs treatment, MTS): inactive |
| CC(C)NC1=NS(=O)(=O)c2ccccc2N1C [Compound 43d, 3-(isopropylamino)-4-methyl-4H-benzo[e][1,2,4]thiadiazine 1,1-dioxide] | – | – | no reduction of cell viability | – | – | – |
| O=S1(=O)N=C(NCc2ccc(C(F)(F)F)cc2)Nc2ccc(Br)cc21 [Compound 25c, 7-bromo-3-((4-(trifluoromethyl)benzyl)amino)-4H-benzo[e][1,2,4]thiadiazine 1,1-dioxide] | – | 34% | – | – | – | – |
| Cc1ccc(CNC2=NS(=O)(=O)c3cc(Cl)ccc3N2)cc1 [Compound 61e, 7-Chloro-3-((4-methylbenzyl)amino)-4H-benzo[e][1,2,4]thiadiazine 1,1-dioxide] | – | – | – | suppressed HUVEC proliferation; also recorded: enhanced activity | 119 ± 10% | IC50 [3]: 43.1 µM |
| CC(C)C(C)NC1=NS(=O)(=O)c2cc(F)ccc2N1 (centres unmarked) [Compound 15a, 7-fluoro-3-((3-methylbutan-2-yl)amino)-4H-benzo[e][1,2,4]thiadiazine 1,1-dioxide] | – | – | substantially less active | no appreciable inhibition | 76 ± 18% | – |
| O=S1(=O)NC(=S)Nc2cc(Cl)ccc21 [Compound 12b, 6-chloro-3-thioxo-3,4-dihydro-2H-1,2,4-benzothiadiazine 1,1-dioxide] | 81% | 12% | – | – | 0% | IC50 [1]: 11.9 µM |
| O=S1(=O)N=C(NC2CCCC2)Nc2cc(Cl)ccc21 [Compound 22b, 6-chloro-3-(cyclopentylamino)-4H-benzo[e][1,2,4]thiadiazine 1,1-dioxide] | – | ~35% | – | – | – | IC50 [3]: 148 ± 26.3 µM |
| C=CCNC1=NS(=O)(=O)c2cc(F)ccc2N1 [Compound 32a, 3-(allylamino)-7-fluoro-4H-benzo[e][1,2,4]thiadiazine 1,1-dioxide] | 38% | 24% | – | – | – | – |
| O=S1(=O)NC(=S)Nc2ccc(F)cc21 [Compound 12a, 7-fluoro-3-thioxo-3,4-dihydro-2H-1,2,4-benzothiadiazine 1,1-dioxide] | – | – | no reduction of cell viability | no appreciable inhibition | 50 ± 35% | – |
| COc1ccc(CNC2=NS(=O)(=O)c3ccccc3N2)cc1 [Compound 20d, 3-((4-methoxybenzyl)amino)-4H-benzo[e][1,2,4]thiadiazine 1,1-dioxide] | – | – | no reduction of cell viability | – | – | – |
| O=S1(=O)N=C(NCCc2ccccc2)Nc2ccc(Br)cc21 [Compound 18c, 7-bromo-3-(phenethylamino)-4H-benzo[e][1,2,4]thiadiazine 1,1-dioxide] | – | – | potent activity | – | – | inhibition at 20 µM ([4]; HUVEC, 48 h): 47 ± 24% |
| COc1ccc(CNC2=NS(=O)(=O)c3cc(Cl)ccc3N2)cc1 [Compound 56e, 7-Chloro-3-((4-methoxybenzyl)amino)-4H-benzo[e][1,2,4]thiadiazine 1,1-dioxide] | – | – | – | suppressed HUVEC proliferation; also recorded: enhanced activity | 91 ± 15% | IC50 [3]: 62.9 ± 4.2 µM |
| O=S1(=O)NC(=S)Nc2ccc(Br)cc21 [Compound 12c, 7-bromo-3-thioxo-3,4-dihydro-2H-1,2,4-benzothiadiazine 1,1-dioxide] | 55% | 16% | – | – | – | IC50 [1]: 37 µM |

More lines, main results first:

| inhibition at 100 µM [1, 5] | SMILES | cytotoxicity at 100 µM [2] | effect on MDA-MB 468 TNBC cell viability [3] | inhibition of VEGF-induced HUVEC proliferation (in words) ([4]; VEGF 10 ng/mL) | inhibition at 20 µM [4, 6] | further results |
| --- | --- | --- | --- | --- | --- | --- |
| 17% | O=S1(=O)N=C(NCCc2c[nH]c3ccccc23)Nc2ccc(F)cc21 [Compound 36a, 3-((2-(1H-indol-3-yl)ethyl)amino)-7-fluoro-4H-benzo[e][1,2,4]thiadiazine 1,1-dioxide] | 30% | almost complete amelioration of cell viability | no appreciable inhibition | 41 ± 26% | – |
| 37% | COc1ccccc1CNC1=NS(=O)(=O)c2cc(F)ccc2N1 [Compound 26a, 7-fluoro-3-((2-methoxybenzyl)amino)-4H-benzo[e][1,2,4]thiadiazine 1,1-dioxide] | – | almost complete amelioration of cell viability | no appreciable inhibition | 29 ± 33% | – |
| 46% | O=S1(=O)N=C(NCCCc2ccccc2)Nc2ccc(Br)cc21 [Compound 23c, 7-bromo-3-((3-phenylpropyl)amino)-4H-benzo[e][1,2,4]thiadiazine 1,1-dioxide] | 42% | – | – | 24 ± 41% | inhibition of CII [1, 5]: 47% |
| 22% | CC(NC1=NS(=O)(=O)c2cc(F)ccc2N1)c1ccccc1 (centres unmarked) [Compound 24a, 7-fluoro-3-((1-phenylethyl)amino)-4H-benzo[e][1,2,4]thiadiazine 1,1-dioxide] | 34% | – | – | – | – |
| 14% | O=S1(=O)N=C(NCCCc2ccccc2)Nc2ccc(F)cc21 [Compound 23a, 7-fluoro-3-((3-phenylpropyl)amino)-4H-benzo[e][1,2,4]thiadiazine 1,1-dioxide] | – | almost complete amelioration of cell viability | no appreciable inhibition | 0% | % Inhibition of Proliferation ([4]; 20 μM compound, VEGF 10 ng/mL, HUVEC, 48 h, relative to VEGF treated cells, mean ± SEM n = 3): inactive |
| 51% | CC(NC1=NS(=O)(=O)c2ccc(Cl)cc2N1)c1ccccc1 (centres unmarked) [Compound 24b, 6-chloro-3-((1-phenylethyl)amino)-4H-benzo[e][1,2,4]thiadiazine 1,1-dioxide] | 50% | – | – | 38 ± 33% | IC50 [1]: 89 µM |
| 55% | CC(NC1=NS(=O)(=O)c2cc(Br)ccc2N1)c1ccccc1 (centres unmarked) [Compound 24c, 7-bromo-3-((1-phenylethyl)amino)-4H-benzo[e][1,2,4]thiadiazine 1,1-dioxide] | 70% | – | – | – | IC50 [1]: 79.8 µM |
